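Assay format: 96-well plates, 48-hour exposure. GI50 marks 50% less growth. TGI marks complete inhibition of growth.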
Legend:
Assay in all cases: inhibition of tumour cell growth, NCI panel, 48 h
786-0 renal = system: 786-0 renal
A498 renal = system: A498 renal
A549 NSCLC = system: A549 NSCLC
ACHN renal = system: ACHN renal
BT-549 breast = system: BT-549 breast
CCRF-CEM leukemia = system: CCRF-CEM leukemia
COLO 205 colon = system: COLO 205 colon
EKVX NSCLC = system: EKVX NSCLC
HCC-2998 colon = system: HCC-2998 colon
HCT-116 colon = system: HCT-116 colon
HCT-15 colon = system: HCT-15 colon
HL-60(TB) leukemia = system: HL-60(TB) leukemia
HOP-62 NSCLC = system: HOP-62 NSCLC
HOP-92 NSCLC = system: HOP-92 NSCLC
HS 578T breast = system: HS 578T breast
HT29 colon = system: HT29 colon
IGROV1 ovarian = system: IGROV1 ovarian
K-562 leukemia = system: K-562 leukemia
KM12 colon = system: KM12 colon
M14 melanoma = system: M14 melanoma
MALME-3M melanoma = system: MALME-3M melanoma
MCF7 breast = system: MCF7 breast
MDA-MB-231 breast = system: MDA-MB-231 breast
MOLT-4 leukemia = system: MOLT-4 leukemia
NCI-H226 lung = system: NCI-H226 lung
NCI-H23 lung = system: NCI-H23 lung
NCI-H460 lung = system: NCI-H460 lung
OVCAR-5 ovarian = system: OVCAR-5 ovarian
OVCAR-8 ovarian = system: OVCAR-8 ovarian
PC-3 prostate = system: PC-3 prostate
RPMI-8226 leukemia = system: RPMI-8226 leukemia
RXF 393 renal = system: RXF 393 renal
SK-MEL-28 melanoma = system: SK-MEL-28 melanoma
SK-MEL-5 melanoma = system: SK-MEL-5 melanoma
SN12C renal = system: SN12C renal
SNB-19 CNS = system: SNB-19 CNS
SNB-75 CNS = system: SNB-75 CNS
SR leukemia = system: SR leukemia
SW-620 colon = system: SW-620 colon
T-47D breast = system: T-47D breast
TK-10 renal = system: TK-10 renal
U251 CNS = system: U251 CNS
UACC-257 melanoma = system: UACC-257 melanoma
UACC-62 melanoma = system: UACC-62 melanoma
UO-31 renal = system: UO-31 renal
CAKI-1 renal = system: CAKI-1 renal
DU-145 prostate = system: DU-145 prostate
LOX IMVI melanoma = system: LOX IMVI melanoma
MDA-MB-435 = system: MDA-MB-435
NCI-H522 lung = system: NCI-H522 lung
NCI/ADR-RES ovarian = system: NCI/ADR-RES ovarian
OVCAR-3 ovarian = system: OVCAR-3 ovarian
OVCAR-4 ovarian = system: OVCAR-4 ovarian
SF-268 CNS = system: SF-268 CNS
SF-295 CNS = system: SF-295 CNS
SF-539 CNS = system: SF-539 CNS
SK-MEL-2 melanoma = system: SK-MEL-2 melanoma
SK-OV-3 ovarian = system: SK-OV-3 ovarian

SMILES: COc1ccc(N2C(=Nc3ccccc3)SC(=N/S(=O)(=O)c3ccccc3)/C2=N\S(=O)(=O)c2ccccc2)cc1
- TGI (786-0 renal): 64.8 µM
- TGI (A498 renal): 52.4 µM
- TGI (A549 NSCLC): 46.5 µM
- TGI (ACHN renal): 61.1 µM
- TGI (BT-549 breast): 54.2 µM
- TGI (CCRF-CEM leukemia): 46 µM
- TGI (COLO 205 colon): 41 µM
- TGI (EKVX NSCLC): 61.2 µM
- TGI (HCC-2998 colon): 42 µM
- TGI (HCT-116 colon): 28.2 µM
- TGI (HCT-15 colon): 31.8 µM
- TGI (HL-60(TB) leukemia): 33.4 µM
- TGI (HOP-62 NSCLC): 98.5 µM
- TGI (HOP-92 NSCLC): 42 µM
- TGI (HS 578T breast): 55.7 µM
- TGI (HT29 colon): 48 µM
- TGI (IGROV1 ovarian): 27.3 µM
- TGI (K-562 leukemia): 44.1 µM
- TGI (KM12 colon): 88.7 µM
- TGI (M14 melanoma): > 100 µM
- TGI (MALME-3M melanoma): 53.9 µM
- TGI (MCF7 breast): 40.8 µM
- TGI (MDA-MB-231 breast): 43.5 µM
- TGI (MOLT-4 leukemia): 45.6 µM
- TGI (NCI-H226 lung): 56.8 µM
- TGI (NCI-H23 lung): 27.4 µM
- TGI (NCI-H460 lung): 26.2 µM
- TGI (OVCAR-5 ovarian): 50.7 µM
- TGI (OVCAR-8 ovarian): 39.6 µM
- TGI (PC-3 prostate): 42.3 µM
- TGI (RPMI-8226 leukemia): 50.8 µM
- TGI (RXF 393 renal): 28.2 µM
- TGI (SK-MEL-28 melanoma): 33.9 µM
- TGI (SK-MEL-5 melanoma): 31.9 µM
- TGI (SN12C renal): 39.8 µM
- TGI (SNB-19 CNS): 57.5 µM
- TGI (SNB-75 CNS): 55 µM
- TGI (SR leukemia): 40.4 µM
- TGI (SW-620 colon): > 100 µM
- TGI (T-47D breast): 20.1 µM
- TGI (TK-10 renal): 52.3 µM
- TGI (U251 CNS): 35.4 µM
- TGI (UACC-257 melanoma): 73.1 µM
- TGI (UACC-62 melanoma): 19.8 µM
- TGI (UO-31 renal): 55.3 µM

SMILES: COc1cc2c3c(n(CCCNCCN)c(=O)c2cc1OC)-c1cc2c(cc1C3=O)OCO2
- GI50 (786-0 renal): 0.312 µM
- TGI (786-0 renal): 2.5 µM
- GI50 (A549 NSCLC): 1.61 µM
- TGI (A549 NSCLC): 13.7 µM
- GI50 (ACHN renal): 0.304 µM
- TGI (ACHN renal): 1.01 µM
- GI50 (BT-549 breast): 1.56 µM
- TGI (BT-549 breast): 9.7 µM
- GI50 (CAKI-1 renal): 0.836 µM
- TGI (CAKI-1 renal): 5.87 µM
- GI50 (CCRF-CEM leukemia): < 0.0105 µM
- TGI (CCRF-CEM leukemia): 0.339 µM
- GI50 (COLO 205 colon): > 100 µM
- TGI (COLO 205 colon): > 100 µM
- GI50 (DU-145 prostate): 0.556 µM
- TGI (DU-145 prostate): 3.41 µM
- GI50 (EKVX NSCLC): 4.58 µM
- TGI (EKVX NSCLC): 17.2 µM
- GI50 (HCT-116 colon): 0.359 µM
- TGI (HCT-116 colon): 0.986 µM
- TGI (HCT-15 colon): > 40.3 µM
- GI50 (HL-60(TB) leukemia): 0.682 µM
- TGI (HL-60(TB) leukemia): 3.66 µM
- GI50 (HOP-62 NSCLC): 0.189 µM
- TGI (HOP-62 NSCLC): 1.73 µM
- GI50 (HOP-92 NSCLC): 2.31 µM
- TGI (HOP-92 NSCLC): 15.6 µM
- GI50 (HS 578T breast): 0.419 µM
- TGI (HS 578T breast): 4.76 µM
- GI50 (HT29 colon): 1.08 µM
- TGI (HT29 colon): 10.4 µM
- GI50 (IGROV1 ovarian): 0.839 µM
- GI50 (K-562 leukemia): 0.601 µM
- TGI (K-562 leukemia): 3.77 µM
- GI50 (KM12 colon): 1.48 µM
- TGI (KM12 colon): 7.19 µM
- GI50 (LOX IMVI melanoma): 0.0299 µM
- TGI (LOX IMVI melanoma): 0.244 µM
- GI50 (M14 melanoma): 0.738 µM
- TGI (M14 melanoma): 5.26 µM
- GI50 (MALME-3M melanoma): 0.654 µM
- TGI (MALME-3M melanoma): 7.74 µM
- GI50 (MCF7 breast): 0.616 µM
- TGI (MCF7 breast): > 100 µM
- GI50 (MDA-MB-231 breast): 0.343 µM
- TGI (MDA-MB-231 breast): 2.48 µM
- GI50 (MDA-MB-435): 1.02 µM
- TGI (MDA-MB-435): 4.56 µM
- GI50 (MOLT-4 leukemia): < 0.0445 µM
- TGI (MOLT-4 leukemia): 0.081 µM
- GI50 (NCI-H226 lung): 1.1 µM
- TGI (NCI-H226 lung): 2.55 µM
- GI50 (NCI-H23 lung): 0.242 µM
- TGI (NCI-H23 lung): 1.14 µM
- GI50 (NCI-H460 lung): 1.24 µM
- TGI (NCI-H460 lung): > 49.9 µM
- GI50 (NCI-H522 lung): 0.245 µM
- TGI (NCI-H522 lung): 2.29 µM
- GI50 (NCI/ADR-RES ovarian): 18.9 µM
- TGI (NCI/ADR-RES ovarian): > 62.4 µM
- GI50 (OVCAR-3 ovarian): 0.363 µM
- TGI (OVCAR-3 ovarian): 1.21 µM
- GI50 (OVCAR-4 ovarian): 0.475 µM
- TGI (OVCAR-4 ovarian): 2.47 µM
- GI50 (OVCAR-5 ovarian): 1.39 µM
- TGI (OVCAR-5 ovarian): 10.5 µM
- GI50 (OVCAR-8 ovarian): 0.259 µM
- TGI (OVCAR-8 ovarian): 6.73 µM
- GI50 (PC-3 prostate): 2.13 µM
- TGI (PC-3 prostate): 14.9 µM
- GI50 (RPMI-8226 leukemia): 0.475 µM
- TGI (RPMI-8226 leukemia): 3.02 µM
- GI50 (RXF 393 renal): 5.36 µM
- TGI (RXF 393 renal): > 51.8 µM
- GI50 (SF-268 CNS): 0.776 µM
- TGI (SF-268 CNS): > 31.9 µM
- GI50 (SF-295 CNS): 1.24 µM
- TGI (SF-295 CNS): 20.3 µM
- GI50 (SF-539 CNS): 0.39 µM
- TGI (SF-539 CNS): 2.22 µM
- GI50 (SK-MEL-2 melanoma): 2.63 µM
- TGI (SK-MEL-2 melanoma): 8.67 µM
- GI50 (SK-MEL-28 melanoma): 0.822 µM
- TGI (SK-MEL-28 melanoma): 2.95 µM
- GI50 (SK-MEL-5 melanoma): 0.978 µM
- TGI (SK-MEL-5 melanoma): 6.77 µM
- GI50 (SK-OV-3 ovarian): > 100 µM
- TGI (SK-OV-3 ovarian): > 100 µM
- GI50 (SN12C renal): 0.351 µM
- TGI (SN12C renal): 4.35 µM
- GI50 (SNB-19 CNS): 40.8 µM
- TGI (SNB-19 CNS): > 100 µM
- GI50 (SNB-75 CNS): 6.34 µM
- TGI (SNB-75 CNS): 21.5 µM
- GI50 (SW-620 colon): 0.377 µM
- TGI (SW-620 colon): 3.9 µM
- GI50 (T-47D breast): > 100 µM
- TGI (T-47D breast): > 100 µM
- GI50 (TK-10 renal): 2.9 µM
- TGI (TK-10 renal): 18.9 µM
- GI50 (U251 CNS): 0.0484 µM
- TGI (U251 CNS): 0.533 µM
- GI50 (UACC-257 melanoma): 1.95 µM
- TGI (UACC-257 melanoma): 14.1 µM
- GI50 (UACC-62 melanoma): 1.01 µM
- TGI (UACC-62 melanoma): 2.64 µM
- GI50 (UO-31 renal): 5.26 µM
- TGI (UO-31 renal): > 32.9 µM
